Measured values taken from patent US10793614B2, “Antagonists of fish reproduction” (Yissum Research Development Company of the Hebrew …, priority 2014, dated 2020).
Numbered stars: 1 amine (or outer) side, 2 acyl side, 3 side chain; on linkers, the order of the positions; unused ones are H or OH. Square brackets hold non-standard residues; d marks the D form. Suc = O=C(CCC(=O)[*:2])[*:1]; NMeV = CN[C@H](C(=O)O)C(C)C; βAla = NCCC(=O)O

Experiments:
[1] = tested on: Tilapia tac3ra and tac3rb; experiment: CRE-luciferase reporter assay in COS-7 cells transfected with tilapia tac3 receptor; format: cell-based; details: for effect of antagonist alone on luciferase activity (CRE-Luc): no ligand; for inhibition of luciferase activity, antagonist with native ligands: different concentrations added concomitantly with 0.1 nM NKB or NKF
Excerpt: There are two signal transduction pathways, one is relayed trough cAMP/PKA (protein kinase A), and the second is trough Ca2+/PKC. The PKA pathway is activated by CRE (cAMP response element) and the PKC through SRE ([…] response element).
In order to differentiate between the PKC and PKA signal transduction pathways, a sensitive luciferase (LUC) reporter gene assay was utilized by using the LUC transcriptionally regulated by a serum response element (SRE; Invitrogen) or cyclic AMP (cAMP) response element (CRE; Invitrogen). Tilapia tac3ra and tac3rb (GenBank accession numbers KF471674 and KF471675, respectively) or zebrafish tac3ra and tac3rb (JF317292, and JF317293, respectively) were cloned in pcDNA3.1 expression vector (Zeo-; Invitrogen) under the control of the CMV promoter.
Transient transfection, cell procedures and stimulation protocols were generally according to (Levavi-Sivan et al., 2005, Mol Cell Endocrinol 236:17-30; Biran et al., 2008, ibid, Biran et al., 2012, ibid, Biran et al., 2014 ibid). Briefly, COS-7 cells were grown in DMEM supplemented with 10% FBS, 1% glutamine, 100 U/ml penicillin, and […] streptomycin (Biological Industries) under 5% CO2 until confluent. Cotransfection of either pc-tac3ra, pc-tac3rb (at 3 μg/plate), a reporter plasmid (at 2 μg/plate), and pCM.
Transfection was carried out with FuGENE 6.0 reagent (Roche). The cells were serum starved for 36 h, stimulated with vehicle or various concentrations of either human NKB, tilapia NKB, tilapia NKF, zebrafish NKBa, NKBb or zebrafish NKF for 6 h, and then harvested and analyzed.
Lysates prepared from the harvested cells were assayed for both luciferase activity and β-galactosidase activity, which was used as an internal standard to normalize the luciferase activity directed by the test plasmid, as described previously. Transfection experiments were performed in triplicate with three independently isolated sets.
The concentrations of ligand used were from 1 nM to 1 μM. Treatments were performed in quadruplicate in three independent experiments.
Each antagonist was added at different concentrations with a constant concentration of the wild-type NKB or NKF, at a dose of the ligand (10^−8M) that gave a response close to the ED50. The results were analyzed by Prism software, according to a non-linear regression one-site competition curve.
The effect of NKB antagonists was tested in tilapia when each antagonist was added at different concentration concomitantly with NKB at 10^−8 M ([…]). Tilapia NKB increased the luciferase activity by 1.8 fold. The various antagonists reduced this response by approximately 60% (FIG. 1A). Similar results were obtained using the SRE response (FIG. 1B). […]

Adult male Tilapia [2] = experiment: In vivo ip injection of adult male tilapia: testis histology, plasma 11KT; details: versus control; for increase of plasma 11KT levels: 500 μg/kg BW ip every 48 h, 0 to 12 days
Experimental: Adult male Tilapia (BW 90 g) were injected ip with saline and 25% DMSO, SB2222000, or the NKB antagonists Ant-4 (500 μg/kg BW every 48 h for 2 weeks, […]). The fish were bled from the caudal blood vessels into heparinized syringes every 2 days after injection. At days 7 and 14 five fish from each group were bled, striped for sperm volume and gonads were taken for Histology. Plasma was analyzed for LH, FSH and 11KT. Blood samples were collected from the caudal vasculature and centrifuged (3000 rpm for 20 minutes at 4° C.) to obtain plasma samples, which were stored at −20° C. until assayed, ELISAs were performed according to (Aizen et al., 2007, Gen Comp Endocrinol, vol. 153, pp 323-332) for FSH and LH and according to Hurvitz et al., 2005 (Gen Comp Endocrinol 140:61-73) for 11KT 1-ketotestosterone, the main androgen in fish which is involved in spermatogenesis). FIG. 6 represents histological observations of gonads from testes of treated fish versus control fish. Fish testes are organized in cysts. […] From right to left: semen from fish injected with SB222200; semen from control fish; semen from fish injected with NKB-antagonist #4. 11KT is the main androgen in fish and is involved in spermatogenesis.

Adult male Tilapia [3] = experiment: In vivo growth of injected adult male tilapia; details: 500 μg/kg BW ip every 48 h for 2 weeks; day 21, seven days after end of treatment
Experimental: Adult male tilapia (BW 60 g) were injected ip with saline and 25% DMSO, SB2222000, or NKB antagonists Ant-6 (500 μg/kg BW every 48 h for 2 weeks, n=25 fish per group). Fish were weighed every 7 days.

[4] = tested on: gonadotropin release in tilapia; experiment: In vivo gonadotropin (FSH, LH) release in sexually mature tilapia females; details: 10, 100 or 500 μg/kg body weight injected; 1, 2, 4, 8 h; starting 1 hour after injection
Experimental: SB222200 was further tested in vivo for its NKB antagonistic activity on gonadotropin release in tilapia. Sexually mature tilapia females (0.62±0.22%; n=10/treatment) were injected with different doses of the NKB non-peptide antagonist SB222200 (10, 100 or 500 μg/kg body weight) at time 0. 1, 2, 4 and 8 hours after the injection the fish were bled from their caudal vasculature. The levels of the gonadotropins FSH and LH were determined using specific ELISA according to Aizen et al., 2007 (Aizen et al., 2007, Gen Comp Endocrinol, vol. 153, pp 323-332).

Salmon tac3 receptor = experiment: CRE-Luc reporter assay in COS-7 cells transfected with salmon tac3r; format: cell-based; details: with wild-type NKB at 10^-8 M
Experimental: Similar to the in-vitro experiments performed in Example 2 in Tilapia and Zebrafish, the inhibition of NKB activity was tested in Salmon fish. Salmon tac3 receptor was cloned in pcDNA3.1 expression vector (Zeo-; Invitrogen) under the control of the CMV promoter. Transfection was carried out with FuGENE 6.0 reagent (Roche). The cells were serum starved for 36 h, stimulated with vehicle or various concentrations of either tilapia NKB for 6 h, and then harvested and analyzed. Lysates prepared from the harvested cells were assayed for both luciferase activity and β-galactosidase activity, which was used as an internal standard to normalize the luciferase activity directed by the test plasmid. Transfection experiments were performed in triplicate with three independently isolated sets. The concentrations of ligand used were from 1 nM to 1 μM. Treatments were performed in quadruplicate in three independent experiments. Each antagonist (NKB-ant 4 and NKB-ant 6) was added at different concentrations with a constant concentration of the wild-type NKB (10^−8M) that gave a response close to the ED50. The results were analyzed by Prism software, according to a non-linear regression one-site competition curve. When salmon tac3 was transfected, NKB increased the luciferase activity by 1.8 fold.

## CC(=O)N(C)C1(c2ccccc2)CCN(CCCC2(c3ccc(Cl)c(Cl)c3)CCCN(C(=O)c3ccccc3)C2)CC1 (stereo in doubt) [Osanetant (SR-142,801), (S)-(1)-N-{{3-[1-benzoyl-3-(3,4-dichlorophenyl)piperidin-3-yl]prop-1-yl}-4-phenylpiperidin-4-yl}-N-methyl acetamide]
[1]
  effect of antagonist alone on luciferase activity (CRE-Luc): no effect
  inhibition of luciferase activity, antagonist with native ligands: typical inhibition curve

## CC[C@H](NC(=O)c1c(C)c(-c2ccccc2)nc2ccccc12)c1ccccc1 [SB222200, (S)-(2)-N-(a-ethylbenzyl)-3-methyl-2-phenylquinoline-4-carboxamide]
[1]
  effect of antagonist alone on luciferase activity (CRE-Luc): no effect
  inhibition of luciferase activity, antagonist with native ligands: typical inhibition curve
Adult male Tilapia [2]
  increase of plasma 11KT levels: significantly inhibited
Adult male Tilapia [3]
  growth (body weight): significant growth
[4]
  FSH levels: significant gradual decline
  LH levels: significant gradual decline

## Succ-Asp-Ile-D-Trp-N(Me)Val-βAla-Leu-Met-NH2 (Suc-DI[dW][NMeV][βAla]LM-NH2; SMILES CC[C@H](C)[C@H](NC(=O)[C@H](CC(=O)O)NC(=O)CCC(=O)O)C(=O)N[C@H](Cc1c[nH]c2ccccc12)C(=O)N(C)[C@H](C(=O)NCCC(=O)N[C@@H](CC(C)C)C(=O)N[C@@H](CCSC)C(N)=O)C(C)C) [Ant-4]
Adult male Tilapia [2]
  increase of plasma 11KT levels: significantly inhibited
Adult male Tilapia [2]; 500 μg/kg BW ip every 48 h for 2 weeks
  histological observations of testes: more partially empty cysts with mature spermatozoa
Salmon tac3 receptor
  reduction of the NKB luciferase response by antagonist: approximately 60%
